What was measured:
Assay in all cases: relative viability (nuclei count vs DMSO), 5 days (fraction); higher = more cells survive
Zebularine + Phenformin = compound: O=c1ncccn1[C@@H]1O[C@H](CO)[C@@H](O)[C@H]1O [Zebularine] + N=C(N)NC(=N)NCCc1ccccc1 [Phenformin] (partner 250 µM)
Summary of the method: (§1)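 Lung cancer cell lines were pin-tool dosed in 1536-well plates on the day after seeding, with either a lone drug or a fixed anchor-drug dose plus five library-drug doses (not always all listed) in √10 steps. Nuclei were counted on 4× images after 5 days. Relative viability is the ratio of treated-well to vehicle-well nuclei counts, with each value a median of duplicate plates.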

Zebularine = compound: O=c1ncccn1[C@@H]1O[C@H](CO)[C@@H](O)[C@H]1O [Zebularine]
Summary of the method: (§2)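 Five library-drug doses, separated by factors of √10, were pinned into 1536-well plates holding lung cancer cell lines after an overnight stay at 37 °C. Cells were fixed, permeabilised and Hoechst-stained in one step after 5 days without medium change, then imaged at 4×. Viability compares treated-well with vehicle-well nuclei, counted in MetaXpress, as a median across plates. Passing plates had control CV below 25% and at least one doubling.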

BI-D1870 = compound: CC(C)CCN1c2nc(Nc3cc(F)c(O)c(F)c3)ncc2N(C)C(=O)C1C [BI-D1870]
Summary of the method: as §2

BI-D1870 + Navitoclax = compound: CC(C)CCN1c2nc(Nc3cc(F)c(O)c(F)c3)ncc2N(C)C(=O)C1C [BI-D1870] + CC1(C)CCC(c2ccc(Cl)cc2)=C(CN2CCN(c3ccc(C(=O)NS(=O)(=O)c4ccc(N[C@H](CCN5CCOCC5)CSc5ccccc5)c(S(=O)(=O)C(F)(F)F)c4)cc3)CC2)C1 [Navitoclax] (partner 0.5 µM)
Summary of the method: as §1

Cell Line	relative viability (Zebularine + Phenformin; first compound 1 µM)	relative viability (Zebularine + Phenformin; first compound 3.162 µM)	relative viability (Zebularine + Phenformin; first compound 10 µM)	relative viability (Zebularine + Phenformin; first compound 31.62 µM)	relative viability (Zebularine + Phenformin; first compound 100 µM)	relative viability (Zebularine; 1 µM)	relative viability (Zebularine; 3.162 µM)	relative viability (Zebularine; 10 µM)	relative viability (Zebularine; 31.62 µM)	relative viability (Zebularine; 100 µM)	relative viability (BI-D1870; 0.04 µM)	relative viability (BI-D1870; 0.1265 µM)	relative viability (BI-D1870; 0.4 µM)	relative viability (BI-D1870; 1.265 µM)	relative viability (BI-D1870; 4 µM)	relative viability (BI-D1870 + Navitoclax; first compound 0.04 µM)	relative viability (BI-D1870 + Navitoclax; first compound 0.1265 µM)	relative viability (BI-D1870 + Navitoclax; first compound 0.4 µM)	relative viability (BI-D1870 + Navitoclax; first compound 1.265 µM)	relative viability (BI-D1870 + Navitoclax; first compound 4 µM)
NCI-H2342	0.635	0.528	0.49	0.73	0.59	1.01	0.953	0.757	0.984	0.853	0.983	0.919	1	1.09	1.15	–	–	–	–	–
HCC-15	0.532	0.496	0.247	0.417	0.308	1.11	0.974	0.752	0.906	0.497	1.02	0.935	0.93	1.02	0.725	0.685	0.656	0.681	0.721	0.459
A-427	0.361	0.302	0.262	0.279	0.213	1.11	0.898	0.65	0.55	0.267	1.18	0.945	0.997	1.04	0.801	1.1	0.958	0.922	0.997	0.999
NCI-H2228	0.313	0.313	0.182	0.323	0.221	1.17	1.08	0.782	0.8	0.486	0.999	0.82	0.845	1.21	0.702	0.94	0.811	0.819	0.823	0.359
NCI-H1734	0.444	0.363	0.26	0.282	0.24	1.02	0.97	0.771	0.579	0.289	1.02	0.922	0.978	0.987	0.815	0.875	0.757	0.842	0.849	0.81
PC-14	0.805	0.28	0.167	0.124	0.0723	1.18	0.694	0.19	0.138	0.109	1.09	0.943	0.97	1.08	0.767	1.08	0.961	0.991	1.07	0.928
NCI-H1915	0.373	0.381	–	0.379	0.349	1.04	0.932	0.821	1.08	1.03	1.09	0.921	0.969	0.988	0.763	0.822	0.763	0.803	0.815	0.746
NCI-H1666	0.594	0.551	0.531	0.591	0.495	1.03	0.904	0.834	1.02	0.868	1.12	1.01	0.955	1.16	0.99	0.89	0.822	0.81	0.933	0.851
HCC-366	0.709	0.613	0.495	0.503	0.0892	1.03	0.995	0.928	0.856	0.297	1.02	0.928	0.995	1.04	0.951	1.15	0.964	1.08	1.01	1.05
SK-MES-1	0.755	0.693	0.45	0.362	0.226	1.11	1.06	0.704	0.673	0.286	1.05	0.911	0.892	0.829	0.617	1.25	1.23	1.15	1.07	0.692
SW 1573	0.379	0.404	–	0.406	0.227	1.04	0.897	0.721	1.01	0.77	1.14	0.896	0.968	0.857	0.61	0.93	0.81	1.13	0.852	0.602
NCI-H661	0.279	0.269	0.28	0.275	0.264	1.02	0.958	0.961	1.06	1.04	1.03	0.974	1	1	0.955	–	–	–	–	–
PC-3 [JPC-3]	0.461	0.486	0.437	0.46	0.396	1.07	1.01	0.711	0.868	0.76	1.05	1.02	0.962	1.1	0.951	0.812	0.739	0.743	0.809	0.734
NCI-H1623	0.624	0.531	0.479	0.535	0.437	0.923	0.895	0.86	0.894	0.531	0.945	0.895	1.19	1.16	0.911	–	–	–	–	–
